Results on eleven molecules are retold here after ChEMBL document CHEMBL5465560, “Selectivity Literature for EUbOPEN Chemogenomic Library” (2024).

Where only a bound is given, the exact number is not on record here.

In experiment [1] the target is TRAF2 and NCK-interacting protein kinase (Homo sapiens) (UniProt Q9UKE5). The experiment can be described thus: Selectivity interaction (LanthaScreen Eu Kinase Binding Assay) EUB0001632a TNIK. As to conditions: at 10 µM.
Experiment [2] has as its target Glycogen synthase kinase-3 beta (Homo sapiens, UniProt P49841). As to conditions: at 10 µM.
The target of experiment [3] is T1, Mitogen-activated protein kinase kinase kinase kinase 3 (Homo sapiens) (UniProt Q8IVH8).
T1 sequence (whole entry): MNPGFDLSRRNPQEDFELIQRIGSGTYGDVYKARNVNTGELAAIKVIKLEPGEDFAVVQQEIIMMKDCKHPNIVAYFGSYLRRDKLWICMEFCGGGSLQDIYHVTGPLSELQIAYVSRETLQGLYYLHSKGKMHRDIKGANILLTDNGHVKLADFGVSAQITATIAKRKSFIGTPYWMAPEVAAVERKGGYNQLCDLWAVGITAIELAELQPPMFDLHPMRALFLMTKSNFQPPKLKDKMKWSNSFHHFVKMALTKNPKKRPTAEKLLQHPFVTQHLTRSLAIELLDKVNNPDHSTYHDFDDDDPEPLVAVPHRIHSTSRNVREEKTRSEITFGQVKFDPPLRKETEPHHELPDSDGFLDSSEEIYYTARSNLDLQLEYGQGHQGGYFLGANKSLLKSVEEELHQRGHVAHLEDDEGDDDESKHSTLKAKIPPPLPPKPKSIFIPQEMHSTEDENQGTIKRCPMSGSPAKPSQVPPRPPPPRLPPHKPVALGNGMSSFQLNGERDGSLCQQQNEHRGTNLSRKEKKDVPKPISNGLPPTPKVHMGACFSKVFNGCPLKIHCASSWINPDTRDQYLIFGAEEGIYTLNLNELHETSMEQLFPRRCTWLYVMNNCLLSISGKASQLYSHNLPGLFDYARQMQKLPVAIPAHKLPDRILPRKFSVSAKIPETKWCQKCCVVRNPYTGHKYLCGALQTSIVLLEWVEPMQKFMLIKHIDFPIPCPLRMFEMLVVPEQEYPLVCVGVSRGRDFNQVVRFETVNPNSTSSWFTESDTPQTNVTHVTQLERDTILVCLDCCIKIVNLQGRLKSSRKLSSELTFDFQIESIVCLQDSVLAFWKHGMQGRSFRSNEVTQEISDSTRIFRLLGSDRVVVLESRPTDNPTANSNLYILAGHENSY
Description: Selectivity interaction (KinomeScan (DiscoverX)) EUB0000229b MAP4K3. The note with it: at 10 µM.

Experiment [4] deals with Death-associated protein kinase 3 (Homo sapiens) (UniProt O43293). The experiment can be described thus: Selectivity interaction (KinomeScan (DiscoverX)) EUB0001079a DAPK3. The note with it: at 1 µM.
Experiment [5] deals with Serine/threonine-protein kinase PRP4 homolog (Homo sapiens) (UniProt Q13523). Description: Selectivity interaction (ActivX KiNativ screen (kinase selectivity in THP-1 cell lysates)) EUB0000639a PRPF4. The format is subcellular. As to conditions: lysate, at 0.04 µM.
In experiment [6] the target is T2, Inhibitor of nuclear factor kappa-B kinase subunit beta (Homo sapiens) (UniProt O14920).
T2 sequence (whole entry): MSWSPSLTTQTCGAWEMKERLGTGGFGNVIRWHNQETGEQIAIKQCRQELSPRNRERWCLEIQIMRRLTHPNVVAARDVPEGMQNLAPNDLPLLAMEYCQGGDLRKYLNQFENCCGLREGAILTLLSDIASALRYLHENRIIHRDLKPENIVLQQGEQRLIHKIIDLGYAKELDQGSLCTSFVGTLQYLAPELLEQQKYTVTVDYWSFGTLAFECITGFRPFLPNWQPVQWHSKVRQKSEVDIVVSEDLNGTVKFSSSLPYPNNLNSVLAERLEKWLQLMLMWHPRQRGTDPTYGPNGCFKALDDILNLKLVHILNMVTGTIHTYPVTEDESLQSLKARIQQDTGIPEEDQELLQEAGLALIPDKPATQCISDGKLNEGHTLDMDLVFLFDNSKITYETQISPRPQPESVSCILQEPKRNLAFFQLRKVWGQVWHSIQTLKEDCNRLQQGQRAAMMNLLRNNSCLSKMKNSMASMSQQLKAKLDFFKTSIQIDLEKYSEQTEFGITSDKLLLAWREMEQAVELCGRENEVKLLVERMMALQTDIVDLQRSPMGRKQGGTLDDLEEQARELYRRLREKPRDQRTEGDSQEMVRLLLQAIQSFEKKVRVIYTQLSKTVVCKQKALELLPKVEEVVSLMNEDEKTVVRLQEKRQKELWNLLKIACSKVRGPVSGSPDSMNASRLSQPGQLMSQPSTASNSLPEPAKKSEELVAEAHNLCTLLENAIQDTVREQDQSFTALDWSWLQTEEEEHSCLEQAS
Description: Selectivity interaction (Millipore kinase profiler) EUB0000124b IKBKB. As to conditions: at 10 µM.

Experiment [7] concerns the target T3, Mitogen-activated protein kinase kinase kinase 3 (Homo sapiens) (UniProt Q99759).
T3 sequence (whole entry): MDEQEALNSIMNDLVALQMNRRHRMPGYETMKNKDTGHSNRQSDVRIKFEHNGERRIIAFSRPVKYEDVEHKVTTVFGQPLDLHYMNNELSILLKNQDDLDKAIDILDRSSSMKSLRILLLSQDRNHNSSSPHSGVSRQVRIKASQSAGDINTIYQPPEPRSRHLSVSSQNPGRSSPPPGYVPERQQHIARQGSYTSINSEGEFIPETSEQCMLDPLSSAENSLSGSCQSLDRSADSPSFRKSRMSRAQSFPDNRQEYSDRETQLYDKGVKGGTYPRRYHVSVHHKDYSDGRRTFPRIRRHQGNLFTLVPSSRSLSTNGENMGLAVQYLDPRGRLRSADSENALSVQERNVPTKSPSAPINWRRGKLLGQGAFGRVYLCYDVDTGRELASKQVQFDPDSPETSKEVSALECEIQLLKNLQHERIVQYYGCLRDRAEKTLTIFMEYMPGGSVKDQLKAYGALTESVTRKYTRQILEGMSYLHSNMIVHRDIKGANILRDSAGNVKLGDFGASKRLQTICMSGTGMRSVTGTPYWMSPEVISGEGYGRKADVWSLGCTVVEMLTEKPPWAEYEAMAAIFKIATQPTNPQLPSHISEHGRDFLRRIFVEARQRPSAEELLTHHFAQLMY
The experiment can be described thus: Selectivity interaction (KinomeScan (DiscoverX)) EUB0001049a MAP3K3. As to conditions: at 1 µM.

Experiment [8] concerns the target Transcription intermediary factor 1-beta (Homo sapiens) (UniProt Q13263). The experiment can be described thus: Selectivity interaction (Human bromodomain panel (DSF assay)) EUB0000233b TRIM28.
The target of experiment [9] is Histone-lysine N-methyltransferase 2C (Homo sapiens) (UniProt Q8NEZ4). The experiment can be described thus: Selectivity interaction (Transferase panel (protein, RNA, and DNA methyltransferases. and EP300 (acetyltransferase))) EUB0000270b MLL3. As to conditions: at 10 µM.
Experiment [10] has as its target Serine/threonine-protein kinase PAK 6 (Homo sapiens) (UniProt Q9NQU5). The experiment can be described thus: Selectivity interaction (KinomeScan (DiscoverX)) EUB0000045b PAK6. As to conditions: at 1 µM.
In experiment [11] the target is Homeodomain-interacting protein kinase 3 (Homo sapiens, UniProt Q9H422). Description: Selectivity interaction (KinomeScan (DiscoverX)) EUB0000595a HIPK3. The note with it: at 10 µM.
Homeodomain-interacting protein kinase 3, sequence (Q9H422 whole entry, looked up): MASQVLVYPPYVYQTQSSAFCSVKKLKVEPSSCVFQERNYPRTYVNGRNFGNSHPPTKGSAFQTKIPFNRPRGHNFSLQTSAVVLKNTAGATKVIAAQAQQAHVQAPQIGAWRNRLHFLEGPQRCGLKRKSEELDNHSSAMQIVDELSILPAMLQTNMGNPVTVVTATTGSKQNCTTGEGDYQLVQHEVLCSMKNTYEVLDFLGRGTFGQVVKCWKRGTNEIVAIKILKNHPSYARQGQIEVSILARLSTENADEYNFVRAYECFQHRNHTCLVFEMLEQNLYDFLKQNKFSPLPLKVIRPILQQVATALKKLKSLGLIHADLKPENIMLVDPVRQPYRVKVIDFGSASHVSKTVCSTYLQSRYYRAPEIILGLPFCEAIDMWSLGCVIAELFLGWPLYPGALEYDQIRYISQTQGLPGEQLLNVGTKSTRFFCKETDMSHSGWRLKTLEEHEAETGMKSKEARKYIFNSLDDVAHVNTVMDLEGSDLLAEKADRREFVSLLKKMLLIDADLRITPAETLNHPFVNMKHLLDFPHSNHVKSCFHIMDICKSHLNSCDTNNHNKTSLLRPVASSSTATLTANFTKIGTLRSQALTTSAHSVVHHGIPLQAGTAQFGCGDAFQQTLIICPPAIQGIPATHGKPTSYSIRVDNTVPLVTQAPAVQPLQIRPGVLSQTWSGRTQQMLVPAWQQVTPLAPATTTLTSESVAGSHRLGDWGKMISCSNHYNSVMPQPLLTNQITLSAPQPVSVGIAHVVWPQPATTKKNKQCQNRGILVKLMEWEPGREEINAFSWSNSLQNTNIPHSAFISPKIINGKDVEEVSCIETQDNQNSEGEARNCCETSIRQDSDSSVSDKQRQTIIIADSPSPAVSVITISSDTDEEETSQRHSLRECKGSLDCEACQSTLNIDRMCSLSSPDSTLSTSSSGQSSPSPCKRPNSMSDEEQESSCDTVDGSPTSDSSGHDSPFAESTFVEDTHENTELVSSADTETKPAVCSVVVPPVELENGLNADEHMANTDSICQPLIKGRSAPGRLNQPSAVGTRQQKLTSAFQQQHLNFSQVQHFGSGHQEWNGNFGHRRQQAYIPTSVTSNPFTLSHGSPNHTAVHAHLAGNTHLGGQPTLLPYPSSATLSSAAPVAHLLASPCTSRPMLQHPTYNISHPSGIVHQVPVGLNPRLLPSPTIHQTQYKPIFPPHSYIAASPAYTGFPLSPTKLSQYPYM

Transcription intermediary factor 1-beta (Homo sapiens), sequence (Q13263 whole entry): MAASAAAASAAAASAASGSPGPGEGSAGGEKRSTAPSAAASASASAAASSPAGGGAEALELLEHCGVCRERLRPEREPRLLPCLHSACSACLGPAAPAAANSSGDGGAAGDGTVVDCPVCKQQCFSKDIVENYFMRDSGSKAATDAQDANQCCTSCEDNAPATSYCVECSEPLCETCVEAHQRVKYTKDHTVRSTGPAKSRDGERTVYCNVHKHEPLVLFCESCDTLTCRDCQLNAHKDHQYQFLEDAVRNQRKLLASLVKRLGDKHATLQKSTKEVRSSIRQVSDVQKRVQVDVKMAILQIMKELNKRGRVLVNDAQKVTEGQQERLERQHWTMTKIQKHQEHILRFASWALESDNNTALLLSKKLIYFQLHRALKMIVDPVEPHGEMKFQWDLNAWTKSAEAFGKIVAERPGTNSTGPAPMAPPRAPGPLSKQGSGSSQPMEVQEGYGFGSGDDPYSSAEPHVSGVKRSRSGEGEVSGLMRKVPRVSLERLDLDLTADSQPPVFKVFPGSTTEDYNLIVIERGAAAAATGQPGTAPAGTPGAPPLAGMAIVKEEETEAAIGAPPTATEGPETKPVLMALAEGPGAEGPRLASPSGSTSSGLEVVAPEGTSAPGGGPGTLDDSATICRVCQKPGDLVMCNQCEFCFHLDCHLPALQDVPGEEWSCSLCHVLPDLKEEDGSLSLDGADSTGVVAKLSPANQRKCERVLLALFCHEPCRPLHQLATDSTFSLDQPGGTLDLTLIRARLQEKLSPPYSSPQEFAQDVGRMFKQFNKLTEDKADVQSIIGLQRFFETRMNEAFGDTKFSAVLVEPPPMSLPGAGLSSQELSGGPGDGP
Serine/threonine-protein kinase PAK 6 (Homo sapiens), sequence (Q9NQU5 whole entry, looked up): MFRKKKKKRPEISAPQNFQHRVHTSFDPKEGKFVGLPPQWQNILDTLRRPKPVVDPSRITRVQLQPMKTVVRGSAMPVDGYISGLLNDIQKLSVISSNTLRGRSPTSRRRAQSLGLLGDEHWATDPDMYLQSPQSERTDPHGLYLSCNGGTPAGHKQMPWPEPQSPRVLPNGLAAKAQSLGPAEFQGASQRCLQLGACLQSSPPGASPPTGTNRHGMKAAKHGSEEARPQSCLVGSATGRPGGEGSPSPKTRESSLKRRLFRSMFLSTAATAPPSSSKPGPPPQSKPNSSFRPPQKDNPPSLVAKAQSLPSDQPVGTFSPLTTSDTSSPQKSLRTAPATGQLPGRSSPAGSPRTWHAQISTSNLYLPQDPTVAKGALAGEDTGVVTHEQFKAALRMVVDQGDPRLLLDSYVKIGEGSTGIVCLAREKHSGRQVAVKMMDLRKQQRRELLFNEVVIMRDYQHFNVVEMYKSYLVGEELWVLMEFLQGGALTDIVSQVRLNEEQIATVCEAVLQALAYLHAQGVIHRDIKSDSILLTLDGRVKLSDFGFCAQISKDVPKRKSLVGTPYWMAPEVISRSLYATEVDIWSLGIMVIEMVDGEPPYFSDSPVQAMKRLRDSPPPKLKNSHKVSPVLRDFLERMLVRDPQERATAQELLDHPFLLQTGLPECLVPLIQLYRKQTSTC
TRAF2 and NCK-interacting protein kinase (Homo sapiens), sequence (Q9UKE5 whole entry, looked up): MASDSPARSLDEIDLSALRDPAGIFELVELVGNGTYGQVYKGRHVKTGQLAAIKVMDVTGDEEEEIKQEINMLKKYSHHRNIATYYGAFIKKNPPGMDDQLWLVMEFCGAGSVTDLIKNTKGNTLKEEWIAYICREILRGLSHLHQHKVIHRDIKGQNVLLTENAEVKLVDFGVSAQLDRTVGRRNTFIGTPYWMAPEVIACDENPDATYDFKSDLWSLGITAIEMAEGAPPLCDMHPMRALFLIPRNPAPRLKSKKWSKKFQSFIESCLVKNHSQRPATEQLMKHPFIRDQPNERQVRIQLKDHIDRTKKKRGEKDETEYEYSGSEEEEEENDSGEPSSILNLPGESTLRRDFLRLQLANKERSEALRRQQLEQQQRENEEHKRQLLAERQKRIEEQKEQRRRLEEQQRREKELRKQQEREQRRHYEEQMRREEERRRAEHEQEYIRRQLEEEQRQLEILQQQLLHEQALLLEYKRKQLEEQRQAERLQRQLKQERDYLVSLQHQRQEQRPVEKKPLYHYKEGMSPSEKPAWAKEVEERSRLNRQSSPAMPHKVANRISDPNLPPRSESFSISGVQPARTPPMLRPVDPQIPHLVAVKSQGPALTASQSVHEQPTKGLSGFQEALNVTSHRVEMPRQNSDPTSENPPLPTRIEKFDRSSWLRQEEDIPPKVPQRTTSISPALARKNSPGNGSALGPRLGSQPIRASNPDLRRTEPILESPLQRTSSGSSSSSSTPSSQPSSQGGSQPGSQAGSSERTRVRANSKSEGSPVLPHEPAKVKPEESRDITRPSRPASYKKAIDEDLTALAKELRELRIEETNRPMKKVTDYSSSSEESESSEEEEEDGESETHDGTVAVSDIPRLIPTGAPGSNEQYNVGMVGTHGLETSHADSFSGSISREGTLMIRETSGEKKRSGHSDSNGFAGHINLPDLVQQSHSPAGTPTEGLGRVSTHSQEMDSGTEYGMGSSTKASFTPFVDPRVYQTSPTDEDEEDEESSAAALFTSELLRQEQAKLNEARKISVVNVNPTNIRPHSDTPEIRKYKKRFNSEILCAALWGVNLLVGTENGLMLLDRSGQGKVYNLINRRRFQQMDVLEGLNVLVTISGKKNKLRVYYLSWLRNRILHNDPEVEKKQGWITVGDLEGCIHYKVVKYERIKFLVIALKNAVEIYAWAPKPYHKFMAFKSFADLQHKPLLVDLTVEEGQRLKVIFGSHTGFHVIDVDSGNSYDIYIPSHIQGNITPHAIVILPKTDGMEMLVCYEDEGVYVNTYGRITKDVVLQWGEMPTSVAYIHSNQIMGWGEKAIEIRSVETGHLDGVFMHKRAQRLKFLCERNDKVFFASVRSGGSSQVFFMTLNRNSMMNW
Serine/threonine-protein kinase PRP4 homolog (Homo sapiens), sequence (Q13523 whole entry): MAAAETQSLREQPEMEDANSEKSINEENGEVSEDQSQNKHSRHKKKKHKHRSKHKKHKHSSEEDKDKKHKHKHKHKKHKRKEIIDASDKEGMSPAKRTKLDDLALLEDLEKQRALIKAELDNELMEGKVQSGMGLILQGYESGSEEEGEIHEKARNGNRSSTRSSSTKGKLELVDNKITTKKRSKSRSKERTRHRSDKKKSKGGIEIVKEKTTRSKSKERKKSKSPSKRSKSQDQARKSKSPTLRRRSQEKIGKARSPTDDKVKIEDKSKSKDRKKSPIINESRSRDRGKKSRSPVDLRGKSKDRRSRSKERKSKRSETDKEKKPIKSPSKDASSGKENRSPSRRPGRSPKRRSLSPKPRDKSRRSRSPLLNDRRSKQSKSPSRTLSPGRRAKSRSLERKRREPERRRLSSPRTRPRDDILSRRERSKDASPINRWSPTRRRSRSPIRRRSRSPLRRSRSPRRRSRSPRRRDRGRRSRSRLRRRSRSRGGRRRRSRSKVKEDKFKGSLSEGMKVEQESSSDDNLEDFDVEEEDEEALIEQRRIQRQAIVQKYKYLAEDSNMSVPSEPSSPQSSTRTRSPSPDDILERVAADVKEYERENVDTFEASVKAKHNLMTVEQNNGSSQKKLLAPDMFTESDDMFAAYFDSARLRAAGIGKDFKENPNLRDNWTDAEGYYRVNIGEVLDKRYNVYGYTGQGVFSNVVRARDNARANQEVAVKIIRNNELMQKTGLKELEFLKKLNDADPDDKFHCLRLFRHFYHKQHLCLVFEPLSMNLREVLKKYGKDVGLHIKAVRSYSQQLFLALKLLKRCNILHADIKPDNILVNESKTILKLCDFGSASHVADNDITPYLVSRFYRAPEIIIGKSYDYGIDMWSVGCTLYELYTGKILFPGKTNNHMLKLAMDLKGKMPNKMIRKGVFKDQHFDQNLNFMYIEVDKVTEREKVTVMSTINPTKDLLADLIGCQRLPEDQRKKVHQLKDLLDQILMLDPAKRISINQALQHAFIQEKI

In the case of `Cn1cc(-n2cnc3c(NCc4nc5cc(Cl)c(Cl)cc5[nH]4)nc(N4CCOCC4)nc32)cn1`, the % of inhibition in [1] was -13.9%. Molecule `Cc1cc([C@@H](C)Nc2ccccc2C(=O)O)c2nc(N3CCOCC3)cc(=O)n2c1` [AZD-6482] registered a % of control in [2] of 100%. In experiment [3], `COc1cc(N(C)c2ccnc3ccc(C(F)(F)F)cc23)cc(OC)c1OC` had a % binding of 87%. In the case of `Nc1cnc(N2CCc3cc(S(=O)(=O)Nc4c(F)cc(Cl)cc4F)cc(N4CCCC4=O)c32)nc1` [TP-020n], the % of control in experiment [4] is 83%.

Consider `CC[C@@H]1[C@H](F)C(=O)N[C@@H]1COc1nccc2cc(C(N)=O)c(OC)cc12` [ZIMLOVISERTIB], for which, in experiment [5], the % of inhibition amounted to 16%. On to `CC(=O)Nc1cccc(-n2c(=O)n(C3CC3)c(=O)c3c(Nc4ccc(I)cc4F)n(C)c(=O)c(C)c32)c1`, for which, in experiment [6], the % of control is 111%. In experiment [7], `COc1cc(Nc2nc(C)cc(-c3cnn4nc(OC)ccc34)n2)cc(C(F)(F)F)c1` displayed a % of control of 72%.

`CN(C)CCCOc1ccc(-c2cc(NCCCn3cccn3)nc(S(C)(=O)=O)n2)cc1` returned a dTM in [8] of less than 2 K.

`Cc1cc(CN)cc(C)c1-c1ncn(C)c1-c1cncn1C` yielded a % activity in experiment [9] of more than 80%. As for `C=CC(=O)Nc1cc(-n2c(=O)ccc3cnc4ccc(-c5ccc(NS(C)(=O)=O)cc5)cc4c32)ccc1C`, the % of control in [10] is 98%. With `COCC(=O)NC/C=C/c1ccc2ncnc(Nc3ccc(Oc4ccc(C)nc4)c(C)c3)c2c1` [CP-724714], in [11], the % of control is 100%.
